{
  "source": "patent US20210137950A1",
  "about": "“Pharmaceutical Composition for Treating Cerebral Infarction” (Kyoto University, priority 2018, published 2021)",
  "key": {"[1]": {"tested_on": "primary cortical neurons", "test": "Cell viability test (CCK-8) after oxygen-glucose deprivation (OGD)", "assay_type": "cell-based, rat", "conditions": "for neuronal viability after OGD: 2 hours OGD + 22 hours recovery, vehicle (DMSO) 18.1±1.9%, p<0.001, mean±SE", "description": "(§1) Cortical neuronal cultures were prepared from 17-day-old Sprague Dawley rat embryos (Shimizu Laboratory Supplies) using methods described earlier (Maki T, et al, Annals of Clinical and Translational Neurology, 2014 August; 1(8):519-33). Briefly, cortices were dissected and dissociated. Cells were plated on dishes coated with poly-D-lysine in Dulbecco's modified Eagle's medium (DMEM) containing 5% heat-inactivated fetal bovine serum and 1% penicillin/streptomycin at a density of 200,000-250,000 cells/cm^2. At 24-hour after seeding, the medium was changed to Neurobasal (NB) medium containing 0.5 mM glutamine, 1% penicillin/streptomycin and 2% B27 supplement. Cultured neurons were used for experiments 14 days after seeding.\n(§2) The medium was replaced with DMEM with no glucose. Then, the cells were placed into the sealed Anaero container with an Anaero Pack (Mitsubishi Gas Chemical Company) for 1.5-2 hours. Following oxygen glucose deprivation, cells were switched to the normal medium and returned to a normoxic 5% CO2 incubator.\nCell viability was assessed by Cell Counting Kit-8 (CCK-8) assay (Dojindo Laboratories). The CCK-8 assay is based on the conversion of a water-soluble tetrazolium salt, 2-(2-methoxy-4-nitrophenyl)-3-(4-nitrophenyl)-5-(2,4-disulfophenyl)-2H-tetrazolium, monosodium salt (WST-8), to a water-soluble formazan dye upon reduction by dehydrogenases in the presence of an electron carrier. The cells were incubated with 10% CCK-8 solution for 1-2 hour at 37° C. Then the absorbance of the culture medium was measured with a microplate reader at a test wavelength of 450 nm and a reference wavelength of 630 nm.\nTo assess protective effects of KUS121 on neurons in ischemic conditions, cell viability tests were performed after oxygen-glucose deprivation (OGD) in both the presence and the absence of KUS121 (FIG. 1, top). OGD was performed in rat cortical primary neuronal cultures for 2 hours with subsequent recovery at 21% 02 and glucose-containing media for further 22 hours. Control neurons were kept at 21% 02 in glucose-containing media for 24 hours. […]"}, "[2]": {"tested_on": "primary cortical neurons", "test": "MAP2 immunocytochemistry after OGD", "assay_type": "cell-based, rat", "conditions": "100 μM KUS, vehicle (DMSO) 0.87±0.13%, p<0.05, mean±SE", "description": "as §1, §2\nThe cells were washed twice with phosphate buffered saline (PBS), followed by 4% paraformaldehyde (PFA) for 15 minutes. After being further washed twice with PBS, they were incubated with PBS/0.1% Tween (10 min) and blocked with 3% BSA/PBS (1 hour at room temperature). […]"}, "[3]": {"tested_on": "primary cortical neurons", "test": "ATP assay (luciferase-based) after OGD", "assay_type": "cell-based, rat", "description": "as §1\nThe medium was replaced with DMEM with no glucose. Then, the cells were placed into the sealed Anaero container with an Anaero Pack (Mitsubishi Gas Chemical Company) for 1.5-2 hours. […]\nATP levels in cell lysates were measured with luciferase chemiluminescence-based ATP assay reagent for cells (Toyo Ink) in accordance with the manufacturer's protocol. […] After incubating for 5 minutes at room temperature, luminescence of an aliquot of the solution was measured in a luminometer.\nCellular ATP levels were measured by the luciferase-based assay after 1.5 hour OGD. […]"}, "[4]": {"tested_on": "C/EBP-homologous protein (CHOP)", "test": "Western blot of CHOP expression after tunicamycin treatment (ER stress)", "assay_type": "cell-based, rat", "conditions": "0.25 μg/mL tunicamycin for 6 hours", "description": "as §1\n(§3) Cells were collected and lysed in RIPA buffer (20 mM HEPES-KOH pH 7.4, 150 mM NaCl, 2 mM EDTA, 1% Nonidet-P40, 1% sodium deoxycholate) containing 10% 2-mercaptoethanol (Nacalai tesque) and 1% protease inhibitor (Nacalai tesque). Dissected brain samples were homogenized in the RIPA buffer with 2-mercaptomethanol and protease inhibitor. Samples were sonicated and centrifuged at 4° C., 15,000 rpm for 15 minutes, and the supernatants were collected. Proteins (15-20 μg per lane) were loaded, and were separated by 5-20% SDS-PAGE and transferred to polyvinylidene fluoride membranes (Millipore). […]"}, "[5]": {"tested_on": "C57BL/6 mice", "test": "Accelerating rotarod test after transient focal cerebral ischemia (distal MCAO with hypoxia)", "assay_type": "in vivo", "conditions": "KUS121 immediately after occlusion (100 mg/kg intravenously and 50 mg/kg intraperitoneally), 24 hours after occlusion, vehicle (5% Cremophor) 134.5±18.4, p<0.05, mean±SE", "description": "(§4) Adult male C57BL/6 (C57BL/6NJcl) and CB-17 (CB-17/lcr-+/+Jcl) mice (6-7 weeks old) were purchased from Shimizu Laboratory supplies and Clea Japan, respectively. Animals were allowed access to food and water ad libitum.\n(§5) In C57BL/6 mice, distal MCAO with hypoxia was performed as previously described with some modifications (Doyle K P, Fathali N, Siddiqui M R, et al. Distal hypoxic stroke: a new mouse model of stroke with high throughput, low variability and a quantifiable functional deficit. Journal of Neuroscience Methods, 2012 May 30; 207(1):31-40). Mice were placed in a large chamber containing 10% oxygen and 90% nitrogen after the occlusion of the distal MCA by a nylon suture. After 30 minutes of hypoxia, mice were returned to normoxic condition with removal of the nylon suture. Sham surgery were identical to the stroke surgery, except for the occlusion of the distal MCA.\nTwenty-four hours after ischemia, mice were placed on an accelerating rotarod apparatus, in which the speed was accelerated from 0 to 40 rpm over 4 minutes. The time for which mice can remain on the rotating cylinder was measured. Three trials were performed and the best latency to fall was used. […]"}, "[6]": {"tested_on": "C57BL/6 mice", "test": "Infarction volume after transient focal cerebral ischemia (distal MCAO with hypoxia)", "assay_type": "in vivo", "conditions": "KUS121 immediately after occlusion (100 mg/kg intravenously and 50 mg/kg intraperitoneally), 24 hours after ischemia, vehicle (5% Cremophor) 8.8±0.63%, p<0.05, mean±SE", "description": "as §4, §5\nMice were deeply anesthetized and perfused transcardially with PBS and 4% PFA 24 hours after ischemia. The brains were extracted and post-fixed in 4% PFA for 48 hours. They were further cryoprotected in 20% sucrose until they sunk to the bottom of the vial. […] The area of the ipsilateral hemisphere and the area of the infarct on each section were measured using NIH imageJ software. […]"}, "[7]": {"tested_on": "CB-17 mice", "test": "Infarction volume after transient focal cerebral ischemia (distal MCAO)", "assay_type": "in vivo", "conditions": "KUS121 immediately before the ischemia, vehicle (5% Cremophor) 11.8±0.60%, p<0.05, mean±SE", "description": "as §4\nIn CB-17 mice, distal middle cerebral artery occlusion (distal MCAO) was performed as previously described with minor modifications (Kasahara Y, Ihara M, Nakagomi T, et al. A highly reproducible model of cerebral ischemia/reperfusion with extended survival in CB-17 mice. Neuroscience Research, 2013 July; 76(3):163-8). In brief, general anesthesia was induced and maintained by inhalation of 4% and 1.5% isoflurane (Pfizer), respectively. Mice were placed in a lateral position, and a skin incision was made between the left eyeball and the left external auditory canal. The left salivary gland and a part of the temporalis muscle were resected to allow visualization of the middle cerebral artery (MCA) through the cranial bone. A burr hole was made in the cranial bone. […] During surgery, rectal temperature was monitored and controlled at 36.0-37.2° C. by a feedback-regulated heating pad.\nMice were deeply anesthetized and perfused transcardially with PBS and 4% PFA 24 hours after ischemia. […] The area of the ipsilateral hemisphere and the area of the infarct on each section were measured using NIH imageJ software. […]"}, "[8]": {"tested_on": "NeuN", "test": "Western blotting of NeuN in cerebral cortex after transient focal cerebral ischemia", "assay_type": "in vivo", "conditions": "CB-17 mice, KUS121 before ischemia", "description": "as §3, with “(Millipore). The following primary antibodies were used: β-actin (1:5000, Sigma Aldrich, A5441), CHOP (1:1000, Cell Signaling Technology, L63F7), NeuN (1:2000, Merck Millipore, ABN78), VCP (1:500, ABGENT, AP6920b). HRP-labeled secondary antibodies (Santa Cruz Biotechnology) were used for visualization by enhanced chemiluminescence (Nacalai tesque).” for “(Millipore).”\nIn CB-17 mice, distal middle cerebral artery occlusion (distal MCAO) was performed as previously described with minor modifications (Kasahara Y, Ihara M, Nakagomi T, et al. A highly reproducible model of cerebral ischemia/reperfusion with extended survival in CB-17 mice. Neuroscience Research, 2013 July; 76(3):163-8). […] During surgery, rectal temperature was monitored and controlled at 36.0-37.2° C. by a feedback-regulated heating pad. […]"}},
  "data": [
    {"smiles": "Cc1cc(F)ccc1-c1ccc(N=Nc2cc(S(=O)(=O)[O-])c3ccccc3c2N)cn1.[Na+]", "note": "[KUS121, 4-amino-3-[6-(4-fluoro-2-methylphenyl)pyridine-3-ylazo]naphthalene-1-sulfonic acid sodium salt]", "values": [
      {"measurement": "neuronal viability after OGD", "setting": "[1]; 100 μM KUS throughout", "value": "43.5±3.1", "unit": "%"},
      {"measurement": "neuronal viability after OGD", "setting": "[1]; 200 μM KUS throughout", "value": "42.4±3.7", "unit": "%"},
      {"measurement": "neuronal viability without OGD", "setting": "[1]; without OGD", "value": "no effect"},
      {"measurement": "MAP2-positive area", "setting": "[2]", "value": "2.64±0.41", "unit": "%"},
      {"measurement": "ATP levels", "setting": "[3]; 100 μM KUS, after 1.5 hour OGD, vehicle (DMSO) 14.3±1.1%, p<0.001, mean±SE", "value": "28.0±2.3", "unit": "%"},
      {"measurement": "ATP levels without OGD", "setting": "[3]; without OGD", "value": "no effect"},
      {"measurement": "expression of CHOP", "setting": "[4]", "value": "suppressed"},
      {"measurement": "rotarod retention time", "setting": "[5]", "value": "201.0 ± 21.8", "unit": "s"},
      {"measurement": "infarction volumes", "setting": "[6]", "value": "4.7±1.70", "unit": "%"},
      {"measurement": "infarction volumes", "setting": "[7]", "value": "5.74±1.64", "unit": "%"},
      {"measurement": "expression of NeuN in cerebral cortex", "setting": "[8]", "value": "preserved"}
    ]}
  ]
}
